Experimental data taken from patent US9751830B2, “Inhibitors of the tumor necrosis factor receptor complex” (The Trustees of the University of Pennsylvania, priority 2010, dated 2017).
Each block holds one compound with its values, some of them ahead of it.

Columns and labels:
L929 cells = assay: Inhibition of TNF-α-induced cytolysis in L929 cells (Crystal Violet staining); type: cell-based, murine
Procedure: L929 cultured murine fibroblast cells were obtained from American Type Culture collection (Manassas, Va.). TNF-α was obtained from Roche Applied Science (T6674). Actinomycin D (ACTD) and Crystal Violet were obtained from Sigma-Aldrich. Testing compounds were dissolved in DMSO at 25 mM. Compounds F001 and FT002/F002, appearing in FIG. 3 and FIG. 2/FIG. 4, were described previously in application Ser. No. 11/815,134 as FIGS. 1-6 and 1-9, respectively, and are reproduced here for reference. Compound 71023, appearing in FIG. 1, was ([(aminocarbothioyl)amino]{[4-({[[(aminocarbothioyl)amino](ammonio)methyl]amino}methyl)-2,5-dimethylbenzyl]amino}methylidene)ammonium dichloride, available from Maybridge Chemicals, UK. Compound MH_072 (also described herein as the compound of formula (II)) was also obtained from Maybridge Chemicals, UK. Compound MH_0724 was synthesized by Sapient Discovery, San Diego, Calif., as described in Example 2.
(§1) Stock L929 cells were grown on tissue culture plastic in complete Dulbecco's Modified Eagle Medium (DMEM) supplemented with 5 weight percent FBS [Fetal Bovine Serum], NEAA [non-essential amino acids], and glutamine. In a first set of experiments, L929 cells were plated using the same medium on 96-well tissue culture plates at high density (i.e., 30,000 cells/well) before use. In a second set of experiments, the testing compounds were pre-incubated with cells for 1 hour. hTNF-α (10 ng/ml) was added to cells for 30 minutes. Cell lysates were then collected for routine Western Blot.
(§2) Approximately 20 hours after plating the L929 cells on 96-well plates, they were re-fed onto fresh medium containing the test compounds (from 0 to 100 μM, final concentration).
For the TNF-α challenges, approximately 30 minutes later, medium containing 4 unit/mL rh-TNF-α and actinomycin D (10 μg/mL) was added. The final concentrations of rh-TNF-α in the assays were […], which is the ED50 concentrations confirmed to induce 50% cell death. The final concentrations of actinomycin D in the assays were 2.5 μg/mL. The plates were incubated for an additional 16-20 hours at 37° C., 5 vol % CO2 in air.
For Crystal Violet staining, the culture medium was discarded and replaced with 0.2% by weight (in 2% by volume ethanol in water), 100 μL/well. After 15 minutes incubation at room temperature, the plates were washed 6 times with deionized water and dried at 37° C. for 40 minutes. Sodium dodecylsylfate (SDS), (1 wt % in water; 100 μL) was added to each well and mixed gently for 1 hour at room temperature. The plates were read at A570 nm

[1] = Solubility under the conditions of the L929 cytolysis assay; type: physicochemical; conditions: L929 cytolysis assay medium, plasma or biological fluid; read-out: soluble under these conditions only up to
Procedure: as §2

[2] = target: T1, TNFR1 ectodomain (TNFR1 ECD) (Homo sapiens, UniProt P19438); assay: Isothermal titration calorimetry (ITC) binding to TNFR1 ectodomain; conditions: 25° C., pH 8.0, 5% DMSO, estimated, read-out: affinity between compound and TNFR1 ECD
T1 construct: The calorimetric cell containing purified TNFR1 ectodomain at a concentration of 0.1 mM; His; made in house
T1 sequence (P19438 30-211 limits assumed): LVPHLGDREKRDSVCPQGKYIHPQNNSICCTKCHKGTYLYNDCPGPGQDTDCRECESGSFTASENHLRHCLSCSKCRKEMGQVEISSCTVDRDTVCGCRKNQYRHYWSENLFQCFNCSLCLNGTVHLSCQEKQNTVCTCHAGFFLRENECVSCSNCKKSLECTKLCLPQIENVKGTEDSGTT
Procedure: Human TNFR1 ectodomain was expressed in bacteria as described Murali, et al., 2005 PNAS 102:10970-75, which is incorporated by reference herein in its entirety. The His-tagged recombinant protein was purified from bacterial cell lysate using Ni-NTA column About 4 mg proteins were obtained from 6 liters of culture. The purified TNFR1 ectodomain was verified for binding activity to hTNF-α in ELISA assay.
Isothermal Titration calorimetry (ITC). The binding thermodynamics of MH724 to TNFR1 was measured by ITC using a high precision VP-ITC titration calorimetric system (Microcal LLC, Northampton, Mass.). The calorimetric cell containing purified TNFR1 ectodomain at a concentration of 0.1 mM in 50 mM sodium phosphate buffer (pH 8.0) containing 300 mM NaCl and 5% DMSO was titrated with MH724 dissolved in the same buffer. The concentration of inhibitor was 2 mM. Injection volumes were 8 μl. All solutions were properly degassed to avoid any formation of bubbles in the calorimeter during stirring. The heat evolved upon each injection of inhibitor was obtained from the integral of the calorimetric signal. The heat associated with the binding of the inhibitor to TNFR1 was obtained by subtracting the heat of dilution from the heat of reaction. The measurements were made at 25° C. Data were analyzed and fitted by using the data analysis software supplied by Microcal (ORIGIN 5.0).

[3] = system: phosphorylation of IκB (p-IκBα(Ser32)); assay: Western blot of TNFα-induced phosphorylation of IκB in L929 cells; type: cell-based, murine; conditions: FIG. 4
Procedure: (§3) hTNF-α was obtained from Sigma (Cat # T6674). Antibodies for IκB, phospho-IκB, p38, and phospho-p38 were purchased from Cell Signaling.
as §1
(§4) Inhibition of TNFα signaling pathways: Upon binding to TNFRs, TNFα induces inflammation through the activation of NFκB and p38 signaling pathways. We determined IκB and p38 effects. IκB is the inhibitor for NFκB. TNFα leads to the phosphorylation and disassociation of IκB from NFκB, a signaling event required for NFκB to become activated and translocate into the nucleus to mediate gene transcription.

[4] = system: phosphorylation of p38 (p-p38); assay: Western blot of TNFα-induced phosphorylation of p38 in L929 cells; type: cell-based, murine; conditions: 50 μM; 1 hour pre-incubation, hTNF-α 10 ng/ml 30 minutes; FIG. 4
Procedure: as §3, §1, §4

[5] = system: TNFα mediated NFκB activity (A549Luc cells); assay: TNFα mediated NFκB luciferase reporter assay in A549Luc cells; type: cell-based, human; conditions: for inhibition of TNFα mediated luciferase activity: 1 hr pre-treatment, 20 ng/ml TNFα 4 hours, FIG. 7; for activity to reduce luciferase activity, F002 and MH0724 compared: concentrations up to 75 μM
Procedure: To study TNFα mediated-NFκB activity, a luciferase reporter system was established. The stable cell line A549Luc was derived from human A549 cells with chromosomal integration of a luciferase reporter construct regulated by 6 copies of the NFκB response element. This clonal cell line was obtained by co-transfection of pNFκB-TA-luc and pFLAG-TNFR1-neo followed by G418 selection at 800 μg/ml. A549Luc cells were pre-treated with inhibitors at indicated concentrations for 1 hr before incubation with 20 ng/ml TNFα for 4 hours. Increased luciferase activity was recorded after TNFα treatment. Luciferase activity was determined using the Luciferase Assay System from Promega.
In this assay, the luciferase activity of A549Luc cells before and after TNFα treatment (20 ng/ml) was equivalent to 0% and 100%, respectively.

- solubility [1]: ≤ 50 µM
Compound: CC(=O)Nc1ccccc1OCC(O)CNCc1ccc(C(F)(F)F)cc1 (stereo not shown) [MH_072]
- maximum inhibition of TNF-α-induced cytolysis (L929 cells; 0 to 50 μM, level limited by solubility): about 30%
- inhibition at 50 µM (L929 cells; Mus musculus, L929, at 50 μM): ~30%
- inhibition of TNF-α-induced cytolysis in L929 cells (L929 cells; from 0 to 50 μM, FIG. 2): dose-dependent inhibition

- Kd [2]: 32 µM
Compound: COC(CNc1ccc(C(F)(F)F)cc1)COc1ccccc1COC(C)=O (stereo not shown) [MH_0724, Acetic acid 2-[2-methoxy-3-(4-trifluoromethyl-phenylamino)-propoxy]-benzyl ester]
- inhibition of TNFα-induced phosphorylation of IκB ([3]; 50 μM, 1 hour pre-incubation, hTNF-α 10 ng/ml 30 minutes): clearly inhibits
- activity on TNFα signaling, MH724 compared with F002 ([3]; 50 μM, IκB and p38 phosphorylation): better activity
- inhibition at 100 µM (L929 cells; Mus musculus, L929, 100 μM, read-out: maximal inhibition of TNF-α-induced cytolysis): ~70%
- inhibition at 50 µM (L929 cells; Mus musculus, L929, at 50 μM): ~40%
- inhibition of TNF-α-induced cytolysis (L929 cells; at 50 μM): about 40%
- inhibition of TNF-α-induced cytolysis in L929 cells (L929 cells; from 0 to 100 μM, FIG. 3): dose-dependent inhibition
- inhibition of TNFα-induced phosphorylation of p38 [4]: clearly inhibits
- luciferase activity, of the control ([5]; 100 μM, before and after TNFα treatment = 0% and 100%): less than 40%
- inhibition of TNFα mediated luciferase activity [5]: dose-dependent manner
- activity to reduce luciferase activity, F002 and MH0724 compared [5]: comparable activity

Compound: CC(=O)Oc1ccc(C(O)(c2ccc(OC(C)=O)cc2)c2ccc(OC(C)=O)cc2)cc1 [Compound F002, reference compound]
- activity on TNFα signaling, F002 compared with MH724 ([3]; 10 μM, IκB and p38 phosphorylation): slightly more activity
- inhibition of TNFα mediated luciferase activity [5]: dose-dependent manner
- activity to reduce luciferase activity, F002 and MH0724 compared [5]: comparable activity

Compound: COc1ccc(C(O)(c2ccc(OC)cc2)c2ccc(OC)cc2)cc1 [Compound F001, reference compound]
- inhibition of TNF-α-induced cytolysis in L929 cells (L929 cells; from 0 to 100 μM, FIG. 3): minimal activity
